Data as given in paper PMC3471066, “The Inhibitory Effect of Prunella vulgaris L. on Aldose Reductase and Protein Glycation” (Journal of Biomedicine and Biotechnology, 2012).
Read-outs that look alike come from different tables or passages of the source.

What was measured:
[1] = Effects on AGEs formation (BSA-methylglyoxal, fluorescence); assay type: biochemical
Procedure: The modified procedure of Lee et al. was followed. Bovine serum albumin (10 mg/mL) was incubated with 5 mM methylglyoxal in sodium phosphate buffer (100 mM; pH 7.4). […] All of the reagent and samples were sterilized by filtration through 0.2 μM membrane filters, and the mixture was incubated at 37°C for 7 days. The fluorescence intensity was measured at an excitation wavelength of 330 nm and an emission wavelength of 410 nm with a LS50B fluorescence spectrometer (Perkin-Elmer Ltd., USA). Aminoguanidine was also tested as a known inhibitor.

[2] = ABTS•+ assay
Procedure: The method of Re et al. was used with slight modification. The ABTS diammonium salt (2 mM) and potassium persulfate (3.5 mM) were mixed and diluted in distilled water kept in the dark at room temperature for 24 h before use. After addition of ABTS^•+ solution to 10 μL of antioxidant compounds were recorded at after 10 min reaction. The percentage inhibition of absorbance at 750 nm is calculated and potted as a function of concentration of antioxidants. Trolox was used as positive control.

[3] = target: T1, rat lens aldose reductase (rAR) (Rattus norvegicus, UniProt P07943); assay: Rat lens aldose reductase (rAR) inhibition, NADPH decrease at 340 nm; assay type: biochemical
T1 construct: from tissue; host or cells: lens of Sprague-Dawley rats (homogenate supernatant)

[4] = tested on: rat erythrocyte; assay: Blood culture (erythrocyte) and intracellular galactitol measurement; assay type: cell-based; conditions: for Rat erythrocyte galactitol content: 30 mM galactose, 5 μg/mL compound, 3 h; for inhibition at 5 µg/mL: Rattus norvegicus, Erythrocyte, 5 μg/mL, read-out: inhibition of galactitol accumulation in rat erythrocyte
Procedure: Blood sample was collected in heparin-containing polypropylene tube from 10-week-old male rats. For sugar and sugar alcohol analysis, erythrocytes from heparinized blood were separated from the plasma and buffy coat by centrifuging at 2000×g for 10 min. The cells were washed thrice with normal saline (0.9% NaCl) at 4°C. In the final washing, the cells were centrifuged at 2000 ×g for 10 min to obtain a consistently packed cell preparation. The packed cells (1 mL) were then incubated in a Krebs-Ringer bicarbonate buffer (pH 7.4) containing 30 mM galactose in the presence or absence of samples at 37°C in 5% CO2 for 3 h. The erythrocytes were washed with cold saline by centrifuging at 2000 ×g for 10 min, precipitated by adding 6% of cold perchloric acid (3 mL), and centrifuged again at 2000 ×g for 10 min. The supernatant was neutralized with 2.5 M K2CO3 at 4°C and used for galactitol determination. HPLC analysis for sugar and sugar alcohol in blood was performed with this supernatant of red blood cell homogenate after being benzoylated.

[5] = tested on: rat lenses; assay: Lens culture and intracellular galactitol measurement; assay type: cell-based; conditions: for Galactitol content in rat lens: 30 mM galactose, 5 μg/mL compound, 6 d; for inhibition at 5 µg/mL: Rattus norvegicus, 5 μg/mL, read-out: inhibition of galactitol accumulation in rat lenses
Procedure: Lenses isolated from 10-week-old male rats were cultured for 6 d in TC-199 medium that contained 15% fetal bovine serum 100 units/mL penicillin and 0.1 mg/mL streptomycin under sterile conditions in an atmosphere of 5% CO2 and 95% air at 37°C. Samples were dissolved in dimethyl sulfoxide. The lenses were divided into 5 groups and cultured in medium containing 5 mM glucose, 30 mM galactose, and rosmarinic acid or caffeic acid ethylene ester. Each lens was placed in well containing 1.0 mL of medium. Galactitol was determined by HPLC after its derivatization by reaction with benzoic acid to a fluorescent compound [20].

[6] = target: T2, human recombinant aldose reductase (rhAR) (Homo sapiens, UniProt P15121); assay: Kinetics of rhAR inhibition, Lineweaver-Burk plots; assay type: biochemical; conditions: DL-glyceraldehyde 0.1-1 mM
T2 construct: purchased Wako Pure Chemical Industries (Osaka, Japan)
Procedure: Reaction mixtures consisted of 0.1 M potassium phosphate, 0.16 mM NADPH, 2 mM of recombinant human aldose reductase (rhAR) with varied concentrations of substrate DL-glyceraldehyde and AR inhibitor in a total volume of 200 μL. Concentrations were ranged from 0.1 to 1 mM for DL-glyceraldehyde, and from 0.1 to 1 mM for active compound. Recombinant human aldose reductase activity was assayed spectrophotometrically by measuring the decrease in absorption of NADPH at 340 nm after substrate addition using Bio Tek Power Wave XS spectrophotometer (Bio Tek Instruments, VT, USA).

[7] = target: T2, human recombinant aldose reductase (rhAR); assay: Human recombinant aldose reductase (rhAR) inhibition; assay type: biochemical

In the case of `N=C(N)NN` [Aminoguanidine, reference compound], the “AGEs IC50” value [1] is reported as 143.92 ± 0.62 µg/mL, the IC50 [1] is reported as 1945 ± 8.39 µM and the “Inhibition (%) of AGEs” value ([1]; 19.61 μg/mL) is reported as 3.96 ± 0.06%. The “Inhibition (%) of AGEs” value ([1]; 98.04 μg/mL) was 37.39 ± 0.52% and the “Inhibition (%) of AGEs” value ([1]; 196.08 μg/mL) was 66.85 ± 0.13%.

For `O=C(O)/C=C/c1ccc(O)c(O)c1` [Compound 1, caffeic acid], the IC50 [2] was 12 ± 0.24 µM, the “Inhibition (%) of ABTS•+” value ([2]; 0.33 μg/mL) was 11.33 ± 0.31% and the “Inhibition (%) of ABTS•+” value ([2]; 1.67 μg/mL) was 34.65 ± 1.03%. For the same molecule, the “Inhibition (%) of ABTS•+” value ([2]; 3.33 μg/mL) was 75.14 ± 1.08% and the “Inhibition (%) of AGEs” value ([1]; 19.61 μg/mL) was 9.33 ± 0.27%.

With `O=C(O)c1ccc(O)c(O)c1` [Compound 2, protocatechuic acid] the IC50 [2] was 11.6 ± 0.22 µM, the “Inhibition (%) of ABTS•+” value ([2]; 0.33 μg/mL) was 14.90 ± 0.34% and the “Inhibition (%) of ABTS•+” value ([2]; 1.67 μg/mL) was 53.79 ± 0.92%. For the same molecule, the “Inhibition (%) of ABTS•+” value ([2]; 3.33 μg/mL) was 93.42 ± 0.58%.

In the case of `O=C(O)C=Cc1ccc(O)cc1` [Compound 3, p-hydroxycinnamic acid], the IC50 [2] is reported as 5.94 ± 1.01 µM, the “Inhibition (%) of ABTS•+” value ([2]; 1.67 μg/mL) is reported as 47.60 ± 1.35% and the “Inhibition (%) of ABTS•+” value ([2]; 3.33 μg/mL) is reported as 59.65 ± 1.39%. The “Inhibition (%) of ABTS•+” value ([2]; 8.33 μg/mL) was 74.05 ± 0.69% and the IC50 ([3]; read-out: rAR IC50) was 8.35 ± 0.51 µM.

In the case of `O=C(/C=C/c1ccc(O)c(O)c1)O[C@H](Cc1ccc(O)c(O)c1)C(=O)O` [Compound 4, rosmarinic acid], the “Rat erythrocyte galactitol content” value [4] is reported as 15.05 ± 0.30 µM, the inhibition at 5 µg/mL [4] is reported as about 35.5% and the IC50 [2] is reported as 8.79 ± 0.1 µM. The “Inhibition (%) of ABTS•+” value ([2]; 0.33 μg/mL) was 9.93 ± 0.27%, the “Inhibition (%) of ABTS•+” value ([2]; 1.67 μg/mL) was 36.50 ± 0.78% and the “Inhibition (%) of ABTS•+” value ([2]; 3.33 μg/mL) was 78.40 ± 1.17%. For the same molecule, the “Galactitol content in rat lens” value [5] was 532.38 ± 6.56 μg/lens wet weight (g), the inhibition at 5 µg/mL [5] was about 36.9% and the “inhibition type of rhAR” value [6] was “noncompetitive”. For the same molecule, the “Inhibition (%) of AGEs” value ([1]; 19.61 μg/mL) was 20.67 ± 0.37%, the IC50 ([3]; rAR IC50) was 2.77 ± 0.48 µM and the IC50 [7] was 18.6 ± 0.4 µM.

For `C=COC(=O)/C=C/c1ccc(O)c(O)c1` [Compound 5, caffeic acid ethylene ester], the “Rat erythrocyte galactitol content” value [4] was 15.89 ± 0.41 µM, the inhibition at 5 µg/mL [4] was about 31.7% and the IC50 [2] was 10.5 ± 0.28 µM. The “Inhibition (%) of ABTS•+” value ([2]; 0.33 μg/mL) was 13.00 ± 0.13%, the “Inhibition (%) of ABTS•+” value ([2]; 1.67 μg/mL) was 50.17 ± 1.75% and the “Inhibition (%) of ABTS•+” value ([2]; 3.33 μg/mL) was 84.68 ± 1.41%. The “Galactitol content in rat lens” value [5] was 653.76 ± 4.68 μg/lens wet weight (g), the inhibition at 5 µg/mL [5] was about 22.5% and the “inhibition type of rhAR” value [6] was “noncompetitive inhibition”. The “inhibition type of rhAR” value ([6]; listed as caffeic acid ethylene ester (5)) was “noncompetitive”, the IC50 [1] was 33.2 ± 0.54 µM and the “Inhibition (%) of AGEs” value ([1]; 1.96 μg/mL) was 9.00 ± 0.43%. The “Inhibition (%) of AGEs” value ([1]; 4.9 μg/mL) was 33.94 ± 0.94%, the “Inhibition (%) of AGEs” value ([1]; 9.8 μg/mL) was 74.81 ± 1.41% and the IC50 ([3]; read-out: rAR IC50) was 3.2 ± 0.55 µM. It also gave an IC50 [7] of 12.6 ± 0.32 µM.

With `O=Cc1ccc(O)c(O)c1` [Compound 6, protocatechualdehyde] the IC50 [2] was 12.4 ± 0.33 µM, the “Inhibition (%) of ABTS•+” value ([2]; 0.33 μg/mL) was 13.73 ± 0.37% and the “Inhibition (%) of ABTS•+” value ([2]; 1.67 μg/mL) was 52.73 ± 0.93%. The “Inhibition (%) of ABTS•+” value ([2]; 3.33 μg/mL) was 92.80 ± 1.50%, the IC50 [1] was 304 ± 3.41 µM and the “Inhibition (%) of AGEs” value ([1]; 19.61 μg/mL) was 9.85 ± 0.16%. The “Inhibition (%) of AGEs” value ([1]; 49.02 μg/mL) was 63.45 ± 1.16% and the “Inhibition (%) of AGEs” value ([1]; 98.04 μg/mL) was 88.69 ± 0.56%.

With `O=c1c(O)c(-c2ccc(O)c(O)c2)oc2cc(O)cc(O)c12` [Quercetin, quercetin, reference compound] the “Rat erythrocyte galactitol content” value [4] was 16.15 ± 0.39 µM, the inhibition at 5 µg/mL [4] was 30.5% and the “Galactitol content in rat lens” value [5] was 448.81 ± 3.38 μg/lens wet weight (g). The inhibition at 5 µg/mL [5] was 46.8%, the inhibition at 1 µg/mL ([3]; 1 μg/mL) was 44.7 ± 1.39% and the inhibition at 5 µg/mL ([3]; 5 μg/mL) was 64.7 ± 1.56%. For the same molecule, the inhibition at 10 µg/mL ([3]; 10 μg/mL) was 75.33 ± 0.55%.

In the case of `Cc1c(C)c2c(c(C)c1O)CCC(C)(C(=O)O)O2` (stereo not shown) [Trolox, reference compound], the “ABTS•+ IC50” value [2] is reported as 3.84 ± 0.10 µg/mL, the IC50 [2] is reported as 15.3 ± 0.4 µM and the “Inhibition (%) of ABTS•+” value ([2]; 1.67 μg/mL) is reported as 21.76 ± 1.15%. The “Inhibition (%) of ABTS•+” value ([2]; 3.33 μg/mL) was 45.48 ± 1.20% and the “Inhibition (%) of ABTS•+” value ([2]; 16.67 μg/mL) was 99.44 ± 0.20%.
